The values below come from article PMC4125821, “Crystal structures of the S6K1 kinase domain in complexes with inhibitors” (Journal of Structural and Functional Genomics, 2014).

What is called IC50 is the point on the concentration scale where inhibition reaches its midpoint.

Each structure is given as a SMILES string.

In the assay the target is T1, human S6K1 (RPS6KB1) protein, residues 1–421 with the T412E mutation (Homo sapiens, UniProt P23443, T412E).
T1 construct: the human S6K1 (RPS6KB1) protein, residues 1–421 with the T412E mutation; purchased Carna Biosciences (Kobe, Japan)
T1 sequence (P23443 1-421 T412E): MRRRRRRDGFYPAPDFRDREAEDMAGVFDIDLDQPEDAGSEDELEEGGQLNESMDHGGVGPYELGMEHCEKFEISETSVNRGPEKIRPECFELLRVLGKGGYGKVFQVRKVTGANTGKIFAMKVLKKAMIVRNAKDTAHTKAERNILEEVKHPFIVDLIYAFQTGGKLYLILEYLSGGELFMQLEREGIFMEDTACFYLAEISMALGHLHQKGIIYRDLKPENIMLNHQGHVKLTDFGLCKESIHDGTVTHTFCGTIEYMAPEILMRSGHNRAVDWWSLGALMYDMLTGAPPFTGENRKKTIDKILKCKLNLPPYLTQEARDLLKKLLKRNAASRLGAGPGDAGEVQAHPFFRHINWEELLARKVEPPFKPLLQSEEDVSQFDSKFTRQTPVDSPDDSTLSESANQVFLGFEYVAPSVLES
The experiment in a line: Kinase mobility shift assay. The note with it: S6K1 residues 1–421, T412E mutation; 2 nM enzyme; 30 min pre-incubation; ATP 0.5 mM; FL-Peptide 26 1.5 μM. The format is biochemical. The procedure:
The mobility shift assay was performed as reported. Briefly, the reaction buffer consisted of 50 mM Hepes (pH 7.4), containing 10 mM MgCl2, 0.01 %(w/v) Brij-35, 1 mM dithiothreitol (DTT), 1 %(v/v) Protease Inhibitor Cocktail Set V [Calbiochem (EMD Millipore), Darmstadt, Germany], 1 %(v/v) Phosphatase Inhibitor Cocktail Set III [Calbiochem (EMD Millipore), Darmstadt, Germany], and 0.6 %(v/v) DMSO. […] The S6K1 protein (final concentration of 2 nM) in the reaction buffer was first incubated with different concentrations of the compounds (0–10 μM) for 30 min. […] The kinase reactions were performed at room temperature, and stopped by the addition of termination buffer [50 mM Hepes buffer (pH 7.4), containing 140 mM EDTA and 0.01 %(w/v) Brij-35]. The phosphorylated and unphosphorylated peptides thus obtained were separated and quantified with a Lab-Chip EZ Reader II (PerkinElmer, MA). Data were fitted using a sigmoidal dose–response regression algorithm in GraphPad Prism (GraphPad Software, La Jolla, CA).

`O=C(Nc1cccc(C(F)(F)F)c1)C1CCN(c2ncnc3[nH]cnc23)CC1` [Compound F179, 1-(9H-purin-6-yl)-N-[3-(trifluoromethyl)phenyl]piperidine-4-carboxamide]: the IC50 came to 206 nM. `NS(=O)(=O)c1ccc(NC(=O)COC(=O)c2c3c(nc4ccccc24)CCCCC3)cc1` [Compound F176, 2-oxo-2-[(4-sulfamoylphenyl)amino]ethyl 7,8,9,10-tetrahydro-6H-cyclohepta[b]quinoline-11-carboxylate]: the IC50 came out at 232 nM.

Regarding `c1ccc2[nH]c(C3CCN(c4ncnc5[nH]ncc45)CC3)nc2c1` [Compound F108, 4-[4-(1H-benzimidazol-2-yl)piperidin-1-yl]-1H-pyrazolo[3,4-d]pyrimidine], the IC50 amounted to 81 nM. As to `CC1CCc2nc3ccccc3c(C(=O)OC(C)C(=O)Nc3ccc(S(N)(=O)=O)cc3)c2C1` (centres unmarked) [Compound F177, 1-oxo-1-[(4-sulfamoylphenyl)amino]propan-2-yl-2-methyl-1,2,3,4-tetrahydroacridine-9-carboxylate], the IC50 was 567 nM.

Turning to `C1=C(c2c[nH]c3ccccc23)CCN(c2ncnc3[nH]ncc23)C1` [Compound F109, 4-[4-(1H-indol-3-yl)-3,6-dihydropyridin-1(2H)-yl]-1H-pyrazolo[3,4-d]pyrimidine], the IC50 was found to be 33 nM.
